Measurements from PubChem BioAssay (NCI).
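96-well plates; 48 h exposure; 5 concentrations. Endpoints by linear interpolation between flanking doses. Not reached: highest tested concentration assigned. GI50 = concentration required for 50% inhibition of growth. TGI is the concentration that stops growth completely.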

What was measured:
Assay in all cases: NCI tumour cell line growth inhibition, 48 h
786-0 renal = test system: 786-0 renal
UACC-257 melanoma = test system: UACC-257 melanoma
MOLT-4 leukemia = test system: MOLT-4 leukemia
MDA-MB-231 breast = test system: MDA-MB-231 breast
SNB-19 CNS = test system: SNB-19 CNS
OVCAR-4 ovarian = test system: OVCAR-4 ovarian
MDA-MB-435 = test system: MDA-MB-435
U251 CNS = test system: U251 CNS
OVCAR-5 ovarian = test system: OVCAR-5 ovarian
HL-60(TB) leukemia = test system: HL-60(TB) leukemia

COc1cc([C@H]2OC[C@@H]3C(c4cc(OC)c5c(c4)OCO5)OC[C@H]23)cc(OC)c1OC (some centres not stated)
TGI (786-0 renal): > 100 µM
TGI (UACC-257 melanoma): > 100 µM
TGI (MOLT-4 leukemia): > 100 µM
TGI (MDA-MB-231 breast): > 100 µM
TGI (SNB-19 CNS): > 100 µM
TGI (OVCAR-4 ovarian): > 100 µM
TGI (MDA-MB-435): > 100 µM
TGI (U251 CNS): > 100 µM
TGI (OVCAR-5 ovarian): > 100 µM

COC1=CC(=O)C2(C=C1OC)OC[C@H]1Oc3c(ccc4c3C=CC(C)(C)O4)C(=O)[C@H]12 (some centres not stated)
TGI (786-0 renal): > 100 µM
TGI (UACC-257 melanoma): > 100 µM
TGI (MOLT-4 leukemia): 85.6 µM
TGI (HL-60(TB) leukemia): 44.6 µM
TGI (SNB-19 CNS): > 100 µM
TGI (U251 CNS): > 100 µM
TGI (OVCAR-5 ovarian): > 100 µM

COc1cc(O)c(C(=O)C2Cc3ccccc32)c(OC)c1 (configuration not stated)
TGI (786-0 renal): > 100 µM
TGI (UACC-257 melanoma): > 100 µM
TGI (MOLT-4 leukemia): 45.8 µM
TGI (HL-60(TB) leukemia): 39.7 µM
TGI (SNB-19 CNS): > 100 µM
TGI (OVCAR-4 ovarian): > 100 µM
TGI (U251 CNS): > 100 µM
TGI (OVCAR-5 ovarian): > 100 µM

COC(=O)CC(=O)OC1C[C@@H]2CCC3C(C)(C)CCC[C@]3(C)C23CC[C@@]1(C)C3 (some centres not stated)
TGI (786-0 renal): 29.9 µM
TGI (UACC-257 melanoma): 35.3 µM
TGI (MOLT-4 leukemia): > 100 µM
TGI (HL-60(TB) leukemia): > 100 µM
TGI (SNB-19 CNS): 31.6 µM
TGI (OVCAR-4 ovarian): 32.5 µM
TGI (U251 CNS): 31.2 µM
TGI (OVCAR-5 ovarian): 29.6 µM

ClC/C=C/CSc1ncnc2nc[nH]c12
GI50 (786-0 renal): > 100 µM
TGI (786-0 renal): > 100 µM
GI50 (UACC-257 melanoma): > 100 µM
TGI (UACC-257 melanoma): > 100 µM
GI50 (MOLT-4 leukemia): > 100 µM
TGI (MOLT-4 leukemia): > 100 µM
GI50 (MDA-MB-231 breast): > 100 µM
TGI (MDA-MB-231 breast): > 100 µM
GI50 (SNB-19 CNS): > 100 µM
TGI (SNB-19 CNS): > 100 µM
GI50 (OVCAR-4 ovarian): > 100 µM
TGI (OVCAR-4 ovarian): > 100 µM
GI50 (MDA-MB-435): > 100 µM
TGI (MDA-MB-435): > 100 µM
GI50 (U251 CNS): > 100 µM
TGI (U251 CNS): > 100 µM
GI50 (OVCAR-5 ovarian): > 100 µM
TGI (OVCAR-5 ovarian): > 100 µM

CC(=O)OC1COC(N2C(=O)C(=O)c3ccccc32)C(OC(C)=O)C1OC(C)=O (configuration not stated)
TGI (786-0 renal): > 100 µM
TGI (UACC-257 melanoma): > 100 µM
TGI (MOLT-4 leukemia): > 100 µM
TGI (SNB-19 CNS): > 100 µM
TGI (OVCAR-4 ovarian): > 100 µM
TGI (U251 CNS): > 100 µM

O=[N+]([O-])c1ccc(N=P(c2ccccc2)(c2ccccc2)c2ccccc2)n2nnnc12
TGI (786-0 renal): > 100 µM
TGI (UACC-257 melanoma): > 100 µM
TGI (MOLT-4 leukemia): > 100 µM
TGI (HL-60(TB) leukemia): > 100 µM
TGI (SNB-19 CNS): > 100 µM
TGI (OVCAR-4 ovarian): 90.3 µM
TGI (U251 CNS): > 100 µM
TGI (OVCAR-5 ovarian): > 100 µM

COc1ccc2c(Cl)cc(NC(=S)Nc3ccccc3)nc2c1
TGI (786-0 renal): 62.7 µM
TGI (UACC-257 melanoma): > 100 µM
TGI (MOLT-4 leukemia): 72.2 µM
TGI (MDA-MB-231 breast): 56.4 µM
TGI (SNB-19 CNS): 46.5 µM
TGI (OVCAR-4 ovarian): > 100 µM
TGI (MDA-MB-435): 34.6 µM
TGI (U251 CNS): 36.4 µM
TGI (OVCAR-5 ovarian): 99.6 µM

O=C1c2c(c3c4ccccc4n(CC4CO4)c3c3[nH]c4ccccc4c23)C(=O)N1Cc1ccccc1 (configuration not stated)
TGI (786-0 renal): > 100 µM
TGI (UACC-257 melanoma): > 100 µM
TGI (MOLT-4 leukemia): > 100 µM
TGI (HL-60(TB) leukemia): > 100 µM
TGI (SNB-19 CNS): > 100 µM
TGI (OVCAR-4 ovarian): > 100 µM
TGI (U251 CNS): > 100 µM
TGI (OVCAR-5 ovarian): > 100 µM

CCn1c(=O)nc2n(-c3ccc(SC)cc3)c3ccccc3nc-2c1=O
TGI (786-0 renal): > 100 µM
TGI (UACC-257 melanoma): > 100 µM
TGI (MOLT-4 leukemia): > 100 µM
TGI (HL-60(TB) leukemia): > 100 µM
TGI (SNB-19 CNS): > 100 µM
TGI (OVCAR-4 ovarian): > 100 µM
TGI (U251 CNS): > 100 µM
TGI (OVCAR-5 ovarian): > 100 µM

CO[C@H]1C[C@H](O[C@H]2CC[C@@]3(C)[C@H](CC[C@@H]4[C@@H]3CC[C@]3(C)[C@@H](C5=CC(=O)OC5)CC[C@]43O)C2)O[C@H](C)[C@H]1O
TGI (786-0 renal): < 0.0129 µM
TGI (UACC-257 melanoma): 0.215 µM
TGI (MDA-MB-231 breast): 0.412 µM
TGI (SNB-19 CNS): 0.143 µM
TGI (OVCAR-4 ovarian): < 0.0131 µM
TGI (MDA-MB-435): 0.0974 µM
TGI (U251 CNS): 0.0197 µM
TGI (OVCAR-5 ovarian): 0.0896 µM
